# Results: PMC4338257 (Drug Design, Development and Therapy, 2015)
# Target: human ether-à-go-go-related gene (hERG) channel (Kv11.1) (Homo sapiens, UniProt Q12809)
# Assay: whole-cell patch clamp in HEK […] cells stably expressing hERG
# Type: cell-based
# Chain of human ether-à-go-go-related gene (hERG) channel (Kv11.1) (Q12809 whole entry): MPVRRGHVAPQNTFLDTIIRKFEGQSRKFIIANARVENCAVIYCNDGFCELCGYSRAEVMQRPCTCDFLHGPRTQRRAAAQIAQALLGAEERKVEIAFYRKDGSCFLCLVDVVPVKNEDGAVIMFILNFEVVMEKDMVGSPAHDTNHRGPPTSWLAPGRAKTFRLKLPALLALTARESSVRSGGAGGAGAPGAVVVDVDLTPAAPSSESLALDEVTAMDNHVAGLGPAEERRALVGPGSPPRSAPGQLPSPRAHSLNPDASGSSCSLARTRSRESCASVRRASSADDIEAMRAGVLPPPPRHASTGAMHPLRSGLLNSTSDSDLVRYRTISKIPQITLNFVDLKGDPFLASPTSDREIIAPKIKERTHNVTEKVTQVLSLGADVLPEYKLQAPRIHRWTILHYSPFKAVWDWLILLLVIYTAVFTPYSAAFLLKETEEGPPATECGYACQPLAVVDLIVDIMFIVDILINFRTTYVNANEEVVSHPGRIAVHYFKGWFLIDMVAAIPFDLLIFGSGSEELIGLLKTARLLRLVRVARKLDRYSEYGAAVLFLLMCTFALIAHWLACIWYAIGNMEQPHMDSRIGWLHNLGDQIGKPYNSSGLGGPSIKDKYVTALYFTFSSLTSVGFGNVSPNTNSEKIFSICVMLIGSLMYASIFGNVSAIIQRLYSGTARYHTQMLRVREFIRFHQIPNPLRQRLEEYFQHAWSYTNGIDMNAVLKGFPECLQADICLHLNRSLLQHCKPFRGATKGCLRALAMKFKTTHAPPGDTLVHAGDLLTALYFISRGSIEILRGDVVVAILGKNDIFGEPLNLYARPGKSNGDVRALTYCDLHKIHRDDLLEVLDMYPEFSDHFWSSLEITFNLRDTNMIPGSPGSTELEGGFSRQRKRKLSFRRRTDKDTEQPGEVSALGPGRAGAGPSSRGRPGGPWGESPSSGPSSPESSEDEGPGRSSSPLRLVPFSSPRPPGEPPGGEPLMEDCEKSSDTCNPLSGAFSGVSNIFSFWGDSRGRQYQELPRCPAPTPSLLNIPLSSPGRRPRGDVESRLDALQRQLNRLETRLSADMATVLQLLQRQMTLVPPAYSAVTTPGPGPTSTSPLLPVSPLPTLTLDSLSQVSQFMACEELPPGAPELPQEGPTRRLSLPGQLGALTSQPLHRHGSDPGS
smiles,measurement,value
Cc1ncc2n1-c1ccc(Cl)cc1C(c1ccccc1F)=NC2 [midazolam],IC50,13.6 µM
